# Values quoted from earlier work, collected in patent US20120178114A1, “METHODS AND DEVICES FOR DETECTING THROMBIN GENERATION” (SUBC, INC., priority 2007, published 2012).
# Biological target: thrombin (Homo sapiens, UniProt P00734)
# Details: BAEE as thrombin substrate
smiles,measurement,value
"CCOC(=O)[C@H](CCCNC(=N)N)NC(=O)c1ccccc1 [BAEE, benzoylarginine ethyl ester]",Km,100 µM
same,kcat,50 s⁻¹
